Measured values from patent publication US9663508B2, “Biaryl acyl-sulfonamide compounds as sodium channel inhibitors” (AMGEN INC., priority 2013, dated 2017).
pIC50: −log10 of the molar value.

molecular target: human Nav 1.5 (Homo sapiens (Human), UniProt Q14524); experiment: Nav 1.5 IonWorks Quattro (IWQ) in vitro assay; assay type: cell-based; conditions: human, HEK 293 cells stably transfected with human Nav 1.5; in-vitro Nav 1.5 IWQ data; read-out: NAV 1.5 IWQ (IC50)
Sequence (Q14524 whole entry): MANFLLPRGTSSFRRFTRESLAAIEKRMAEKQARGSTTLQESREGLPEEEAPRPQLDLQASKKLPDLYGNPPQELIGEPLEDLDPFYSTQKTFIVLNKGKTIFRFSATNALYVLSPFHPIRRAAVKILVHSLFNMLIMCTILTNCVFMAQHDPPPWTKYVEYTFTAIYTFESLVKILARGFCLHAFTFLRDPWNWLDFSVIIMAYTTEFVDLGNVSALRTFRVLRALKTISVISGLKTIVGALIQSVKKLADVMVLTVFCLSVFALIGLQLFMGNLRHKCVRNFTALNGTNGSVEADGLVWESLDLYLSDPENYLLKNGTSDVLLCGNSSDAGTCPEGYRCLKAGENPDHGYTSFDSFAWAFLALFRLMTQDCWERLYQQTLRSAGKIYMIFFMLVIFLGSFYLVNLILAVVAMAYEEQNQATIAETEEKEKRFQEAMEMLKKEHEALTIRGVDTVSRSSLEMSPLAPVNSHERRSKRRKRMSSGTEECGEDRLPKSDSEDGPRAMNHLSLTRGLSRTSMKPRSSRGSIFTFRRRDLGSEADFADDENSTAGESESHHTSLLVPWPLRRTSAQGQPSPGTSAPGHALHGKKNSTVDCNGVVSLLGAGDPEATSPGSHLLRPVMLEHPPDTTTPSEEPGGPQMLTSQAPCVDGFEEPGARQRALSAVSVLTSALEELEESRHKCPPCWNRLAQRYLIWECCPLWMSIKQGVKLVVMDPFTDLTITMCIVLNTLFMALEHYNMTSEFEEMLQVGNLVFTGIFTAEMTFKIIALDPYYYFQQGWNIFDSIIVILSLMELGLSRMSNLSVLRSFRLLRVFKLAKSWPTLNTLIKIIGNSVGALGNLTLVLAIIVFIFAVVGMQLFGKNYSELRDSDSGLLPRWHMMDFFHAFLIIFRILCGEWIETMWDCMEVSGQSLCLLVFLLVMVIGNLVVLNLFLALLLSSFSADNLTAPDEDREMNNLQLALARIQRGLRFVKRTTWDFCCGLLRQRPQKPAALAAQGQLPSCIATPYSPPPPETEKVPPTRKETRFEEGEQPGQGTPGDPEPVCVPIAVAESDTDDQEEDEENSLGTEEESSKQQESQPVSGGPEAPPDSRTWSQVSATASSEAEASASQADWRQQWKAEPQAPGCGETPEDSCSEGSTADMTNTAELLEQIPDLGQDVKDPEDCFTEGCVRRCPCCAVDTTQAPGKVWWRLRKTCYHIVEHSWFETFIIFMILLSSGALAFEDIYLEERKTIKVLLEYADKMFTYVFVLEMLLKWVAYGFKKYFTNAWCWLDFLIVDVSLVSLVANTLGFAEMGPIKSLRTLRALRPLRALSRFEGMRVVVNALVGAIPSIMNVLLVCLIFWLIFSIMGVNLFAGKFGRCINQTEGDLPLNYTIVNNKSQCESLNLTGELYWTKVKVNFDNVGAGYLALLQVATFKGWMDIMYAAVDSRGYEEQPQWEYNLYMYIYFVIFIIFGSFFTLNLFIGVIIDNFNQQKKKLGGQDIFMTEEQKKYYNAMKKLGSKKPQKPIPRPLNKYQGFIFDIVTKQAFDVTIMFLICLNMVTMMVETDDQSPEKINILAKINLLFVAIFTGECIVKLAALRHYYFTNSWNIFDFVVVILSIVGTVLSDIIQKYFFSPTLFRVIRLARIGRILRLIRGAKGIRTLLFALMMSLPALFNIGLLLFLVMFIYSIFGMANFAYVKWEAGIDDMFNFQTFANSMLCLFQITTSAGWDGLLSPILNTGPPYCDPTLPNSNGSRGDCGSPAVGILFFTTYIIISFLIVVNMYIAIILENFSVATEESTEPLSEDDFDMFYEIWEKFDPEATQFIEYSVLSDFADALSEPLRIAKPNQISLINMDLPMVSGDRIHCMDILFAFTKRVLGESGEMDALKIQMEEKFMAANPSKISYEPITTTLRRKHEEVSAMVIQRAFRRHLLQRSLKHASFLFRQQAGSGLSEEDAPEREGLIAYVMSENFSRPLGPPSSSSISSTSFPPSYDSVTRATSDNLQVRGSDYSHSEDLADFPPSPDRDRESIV

SMILES	pIC50
C[C@](Oc1ncc(-c2cc(F)c(C(=O)NS(C)(=O)=O)cc2F)cc1Cl)(c1ccccc1)C(F)(F)F (single isomer, unassigned) [Example 805]	< 5.52
C[C@@](Oc1ncc(-c2cc(F)c(C(=O)NS(C)(=O)=O)cc2F)cc1Cl)(c1ccccc1)C(F)(F)F (single isomer, unassigned) [Example 804]	< 5.52

same assay, conditions: read-out: NAV 1.5 IWQ IC50

SMILES	pIC50
Cc1ccc(C(C)(C)C)c(Oc2ncc(-c3cc(F)c(C(=O)NS(C)(=O)=O)cc3C)cc2Cl)c1 [Example 624, 4-(6-(2-tert-butyl-5-methylphenoxy)-5-chloro-3-pyridinyl)-2-fluoro-5-methyl-N-(methylsulfonyl)benzamide]	< 5.52
Cc1cc(C(=O)NS(C)(=O)=O)c(F)cc1-c1cnc(N2CCC[C@@H]2c2cccc(Cl)c2)c(Cl)c1 [Example 656, 4-(5-chloro-6-((2R)-2-(3-chlorophenyl)-1-pyrrolidinyl)-3-pyridinyl)-2-fluoro-5-methyl-N-(methylsulfonyl)benzamide, 4-(5-chloro-6-((2S)-2-(3-chlorophenyl)-1-pyrrolidinyl)-3-pyridinyl)-2-fluoro-5-methyl-N-(methylsulfonyl)benzamide]	< 5.52
Cc1cc(C(=O)NS(C)(=O)=O)c(F)cc1-c1cnc(O[C@H](C)c2cc(Cl)ccc2Cl)c(Cl)c1 [Example 673, 4-(5-chloro-6-((1R)-1-(2,5-dichlorophenyl)ethoxy)-3-pyridinyl)-2-fluoro-5-methyl-N-(methylsulfonyl)benzamide]	< 5.00

molecular target: human Nav1.7 (Homo sapiens (Human), UniProt Q15858); experiment: Nav 1.7 in vitro PatchXpress (PX) assay; assay type: cell-based; conditions: not given
Sequence (Q15858 whole entry): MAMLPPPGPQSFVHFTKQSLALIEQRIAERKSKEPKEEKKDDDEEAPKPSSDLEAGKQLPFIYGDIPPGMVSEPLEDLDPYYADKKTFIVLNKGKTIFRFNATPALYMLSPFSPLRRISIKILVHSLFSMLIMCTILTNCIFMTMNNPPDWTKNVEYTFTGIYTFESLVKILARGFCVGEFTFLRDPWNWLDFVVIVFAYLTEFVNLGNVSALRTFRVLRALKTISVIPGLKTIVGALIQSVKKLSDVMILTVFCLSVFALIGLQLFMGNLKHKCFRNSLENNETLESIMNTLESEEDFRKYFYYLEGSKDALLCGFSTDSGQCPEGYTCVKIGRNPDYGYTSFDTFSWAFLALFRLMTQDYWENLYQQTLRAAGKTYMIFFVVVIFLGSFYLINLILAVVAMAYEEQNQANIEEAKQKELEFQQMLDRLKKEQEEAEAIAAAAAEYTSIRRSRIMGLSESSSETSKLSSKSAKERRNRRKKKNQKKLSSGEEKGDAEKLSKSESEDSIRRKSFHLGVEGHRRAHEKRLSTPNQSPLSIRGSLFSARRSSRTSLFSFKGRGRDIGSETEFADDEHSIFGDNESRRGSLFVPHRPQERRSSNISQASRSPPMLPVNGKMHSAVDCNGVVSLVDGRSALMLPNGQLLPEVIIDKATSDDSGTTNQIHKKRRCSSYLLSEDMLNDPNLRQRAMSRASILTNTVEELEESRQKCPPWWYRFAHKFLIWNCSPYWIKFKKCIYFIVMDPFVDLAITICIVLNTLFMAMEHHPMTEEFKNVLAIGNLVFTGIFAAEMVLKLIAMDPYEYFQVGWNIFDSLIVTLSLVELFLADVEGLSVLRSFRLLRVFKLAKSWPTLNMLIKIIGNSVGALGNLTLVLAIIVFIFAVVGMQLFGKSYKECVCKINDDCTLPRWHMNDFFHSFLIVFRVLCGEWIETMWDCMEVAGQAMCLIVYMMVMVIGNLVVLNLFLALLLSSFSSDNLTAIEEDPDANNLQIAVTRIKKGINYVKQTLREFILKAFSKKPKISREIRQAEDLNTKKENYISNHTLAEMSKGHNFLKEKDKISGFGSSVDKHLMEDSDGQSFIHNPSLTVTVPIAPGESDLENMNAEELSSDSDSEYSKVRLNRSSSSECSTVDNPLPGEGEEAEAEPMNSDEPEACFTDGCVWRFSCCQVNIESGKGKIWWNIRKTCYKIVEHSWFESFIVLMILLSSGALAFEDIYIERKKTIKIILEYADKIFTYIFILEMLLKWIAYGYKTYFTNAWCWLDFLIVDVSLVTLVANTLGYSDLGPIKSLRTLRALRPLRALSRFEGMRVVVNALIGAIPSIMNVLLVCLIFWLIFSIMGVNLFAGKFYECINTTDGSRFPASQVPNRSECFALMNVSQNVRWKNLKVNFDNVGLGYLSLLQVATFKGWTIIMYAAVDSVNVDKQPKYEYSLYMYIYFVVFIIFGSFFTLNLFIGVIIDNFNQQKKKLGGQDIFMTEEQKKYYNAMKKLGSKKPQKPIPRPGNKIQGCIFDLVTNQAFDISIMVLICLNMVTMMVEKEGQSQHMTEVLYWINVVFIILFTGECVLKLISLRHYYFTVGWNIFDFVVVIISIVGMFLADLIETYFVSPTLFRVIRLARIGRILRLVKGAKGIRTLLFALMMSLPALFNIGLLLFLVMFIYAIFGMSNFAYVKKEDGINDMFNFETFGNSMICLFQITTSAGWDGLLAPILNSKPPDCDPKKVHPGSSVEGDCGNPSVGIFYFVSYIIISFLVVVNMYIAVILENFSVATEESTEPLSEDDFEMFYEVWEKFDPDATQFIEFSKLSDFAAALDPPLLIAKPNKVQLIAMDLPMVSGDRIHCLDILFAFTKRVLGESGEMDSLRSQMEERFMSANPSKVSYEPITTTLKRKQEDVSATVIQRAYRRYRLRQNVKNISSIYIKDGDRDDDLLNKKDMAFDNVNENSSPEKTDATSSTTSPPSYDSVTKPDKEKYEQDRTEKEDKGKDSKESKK

pIC50	SMILES
7.08	Cc1ccc(C(C)(C)C)c(Oc2ncc(-c3cc(F)c(C(=O)NS(C)(=O)=O)cc3C)cc2Cl)c1 [Example 624, 4-(6-(2-tert-butyl-5-methylphenoxy)-5-chloro-3-pyridinyl)-2-fluoro-5-methyl-N-(methylsulfonyl)benzamide]
7.05	C[C@@H](Oc1ncc(-c2cc(F)c(C(=O)NS(C)(=O)=O)cc2F)cc1Cl)c1ccc(F)cc1F [Example 574, 4-(5-chloro-6-((1R)-1-(2,4-difluorophenyl)ethoxy)-3-pyridinyl)-2,5-difluoro-N-(methylsulfonyl)benzamide]
7.03	Cc1cc(C(=O)NS(C)(=O)=O)c(F)cc1-c1cnc(O[C@@H](c2ccccc2)C(F)(F)F)c(Cl)c1 [Example 684, 4-(5-chloro-6-((1S)-2,2,2-trifluoro-1-phenylethoxy)-3-pyridinyl)-2-fluoro-5-methyl-N-(methylsulfonyl)benzamide]

More lines, now with the values behind:

SMILES	pIC50
Cc1cc(C(=O)NS(C)(=O)=O)c(F)cc1-c1cnc(N2CCC[C@@H]2c2cccc(Cl)c2)c(Cl)c1 [Example 656, 4-(5-chloro-6-((2R)-2-(3-chlorophenyl)-1-pyrrolidinyl)-3-pyridinyl)-2-fluoro-5-methyl-N-(methylsulfonyl)benzamide, 4-(5-chloro-6-((2S)-2-(3-chlorophenyl)-1-pyrrolidinyl)-3-pyridinyl)-2-fluoro-5-methyl-N-(methylsulfonyl)benzamide]	7.13
COc1cc(C(=O)NS(C)(=O)=O)ccc1-c1cnc(Oc2cccc(F)c2F)c(Cl)c1 [Example 402, 4-(5-chloro-6-(2,3-difluorophenoxy)-3-pyridinyl)-3-methoxy-N-(methylsulfonyl)benzamide]	7.10
COc1cc(C(=O)NS(C)(=O)=O)ccc1-c1cnc(Oc2cccc(Cl)c2Cl)c(Cl)c1 [Example 583, 4-(5-Chloro-6-(2,3-Dichlorophenoxy)Pyridin-3-yl)-3-Methoxy-N-(Methylsulfonyl)Benzamide]	7.52
COc1cc(C(=O)NS(C)(=O)=O)ccc1-c1cnc(Oc2cc(F)ccc2Cl)c(Cl)c1 [Example 371, 4-(5-chloro-6-(2-chloro-5-fluorophenoxy)-3-pyridinyl)-3-methoxy-N-(methylsulfonyl)benzamide]	7.10
COc1cc(C(=O)NS(C)(=O)=O)ccc1-c1cnc(Oc2cc(Cl)ccc2Cl)c(Cl)c1 [Example 582, 4-(5-chloro-6-(2,5-dichlorophenoxy)-3-pyridinyl)-3-methoxy-N-(methylsulfonyl)benzamide]	7.21
COc1cc(C(=O)NS(C)(=O)=O)ccc1-c1cnc(N2CCC[C@H]2C(C)C)c(Cl)c1 [Example 355, 4-(5-chloro-6-((2S)-2-(1-methylethyl)-1-pyrrolidinyl)-3-pyridinyl)-3-methoxy-N-(methylsulfonyl)benzamide]	7.06
COc1cc(C(=O)NS(C)(=O)=O)ccc1-c1cnc(Oc2cc(Cl)cc(C(F)(F)F)c2)c(Cl)c1 [Example 374, 4-(5-chloro-6-(3-chloro-5-(trifluoromethyl)phenoxy)-3-pyridinyl)-3-methoxy-N-(methylsulfonyl)benzamide]	7.23
Cc1ccc(Cl)c(Oc2ncc(-c3ccc(C(=O)NS(C)(=O)=O)cc3OC(F)F)cc2Cl)c1 [Example 462, 4-(5-chloro-6-(2-chloro-5-methylphenoxy)-3-pyridinyl)-3-(difluoromethoxy)-N-(methylsulfonyl)benzamide]	7.17
CS(=O)(=O)NC(=O)c1cc(F)c(-c2cnc(Oc3c(Cl)cc(Cl)cc3Cl)c(Cl)c2)cc1F [Example 568, 4-(5-chloro-6-(2,4,6-trichlorophenoxy)-3-pyridinyl)-2,5-difluoro-N-(methylsulfonyl)benzamide]	7.31
Cc1ccc(Oc2ncc(-c3ccc(C(=O)NS(C)(=O)=O)cc3OC3COC3)cc2Cl)cc1Cl [Example 425, 4-(5-chloro-6-(3-chloro-4-methylphenoxy)-3-pyridinyl)-N-(methylsulfonyl)-3-(3-oxetanyloxy)benzamide]	7.49
COc1cc(C(=O)NS(C)(=O)=O)ccc1-c1cnc(Oc2ccc(Cl)cc2)c(Cl)c1 [Example 350, 4-(5-chloro-6-(4-chlorophenoxy)-3-pyridinyl)-3-methoxy-N-(methylsulfonyl)benzamide]	7.03

same assay, conditions: at 5 µM (5 uM)

SMILES	NAV 1.7 PX inhibition [%]
COc1nccc(C)c1-c1cc(C(=O)NS(C)(=O)=O)ccc1-c1cnc(OCC(C)C)c(Cl)c1 [Example 820, 4-(5-Chloro-6-Isobutoxypyridin-3-yl)-3-(2-Methoxy-4-Methylpyridin-3-yl)-N-(Methylsulfonyl)Benzamide]	23

same assay, conditions: in-vitro Nav 1.7 PX data

pIC50	SMILES
6.30	Cc1cc(C(=O)NS(C)(=O)=O)c(F)cc1-c1cnc(-c2cc(F)cc(F)c2)c(Cl)c1 [Example 834, 4-(5-Chloro-6-(3,5-Difluorophenyl)-3-Pyridinyl)-2-Fluoro-5-Methyl-N-(Methylsulfonyl)Benzamide]
7.29	COc1cc(C(=O)NS(C)(=O)=O)c(F)cc1-c1cnc(Oc2ccc(Cl)c(Cl)c2)c(Cl)c1 [Example 755, 4-(5-chloro-6-(3,4-dichlorophenoxy)-3-pyridinyl)-2-fluoro-5-methoxy-N-(methylsulfonyl)benzamide]
7.12	COc1cc(C(=O)NS(C)(=O)=O)c(F)cc1-c1cnc(Oc2c(Cl)ccc(C)c2F)c(Cl)c1 [Example 762, 4-(5-chloro-6-(6-chloro-2-fluoro-3-methylphenoxy)-3-pyridinyl)-2-fluoro-5-methoxy-N-(methylsulfonyl)benzamide]
7.25	COc1cc(C(=O)NS(C)(=O)=O)c(F)cc1-c1cnc(Oc2ccc(F)c(Cl)c2)c(Cl)c1 [Example 741, 4-(5-chloro-6-(3-chloro-4-fluorophenoxy)-3-pyridinyl)-2-fluoro-5-methoxy-N-(methylsulfonyl)benzamide]
6.38	Cc1cc(C(=O)NS(C)(=O)=O)c(F)cc1-c1ccc(C(F)(F)F)c(Cl)c1 [Example 807, 3′-chloro-5-fluoro-2-methyl-N-(methylsulfonyl)-4′-(trifluoromethyl)-4-biphenylcarboxamide]
7.12	COc1cc(C(=O)NS(C)(=O)=O)c(F)cc1-c1cnc(Oc2c(C)cccc2Cl)c(Cl)c1 [Example 748, 4-(5-chloro-6-(2-chloro-6-methylphenoxy)-3-pyridinyl)-2-fluoro-5-methoxy-N-(methylsulfonyl)benzamide]
7.17	COc1cc(C(=O)NS(C)(=O)=O)c(F)cc1-c1cnc(Oc2c(F)ccc(Cl)c2F)c(Cl)c1 [Example 744, 4-(5-chloro-6-(3-chloro-2,6-difluorophenoxy)-3-pyridinyl)-2-fluoro-5-methoxy-N-(methylsulfonyl)benzamide]
7.03	COc1cc(C(=O)NS(C)(=O)=O)c(F)cc1-c1cnc(Oc2ccc(F)cc2F)c(Cl)c1 [Example 742, 4-(5-chloro-6-(2,4-difluorophenoxy)-3-pyridinyl)-2-fluoro-5-methoxy-N-(methylsulfonyl)benzamide]
7.02	COc1cc(C(=O)NS(C)(=O)=O)c(F)cc1-c1cnc(Oc2cc(F)ccc2C)c(Cl)c1 [Example 743, 4-(5-chloro-6-(5-fluoro-2-methylphenoxy)-3-pyridinyl)-2-fluoro-5-methoxy-N-(methylsulfonyl)benzamide]
6.64	Cc1cc(C(=O)NS(C)(=O)=O)c(F)cc1-c1cnc(NC(C)(C)C)c(Cl)c1 [Example 815, 4-(6-(tert-butylamino)-5-chloro-3-pyridinyl)-2-fluoro-5-methyl-N-(methylsulfonyl)benzamide]

Second part, the molecule before the results:

SMILES	pIC50
COc1cc(C(=O)NS(C)(=O)=O)c(F)cc1-c1cnc(N[C@H]2CC23CCCC3)c(Cl)c1 [Example 771, 4-(5-chloro-6-((1S)-spiro[2.4]hept-1-ylamino)-3-pyridinyl)-2-fluoro-5-methoxy-N-(methylsulfonyl)benzamide]	7.06
COc1cc(C(=O)NS(C)(=O)=O)c(F)cc1-c1cnc(SCc2cc(F)ccc2F)c(Cl)c1 [Example 730, 4-(5-chloro-6-((2,5-difluorobenzyl)sulfanyl)-3-pyridinyl)-2-fluoro-5-methoxy-N-(methylsulfonyl)benzamide]	7.23
Cc1cc(C(=O)NS(C)(=O)=O)c(F)cc1-c1cnc(OC(C)(C)C)c(Cl)c1 [Example 816, 4-(6-tert-butoxy-5-chloro-3-pyridinyl)-2-fluoro-5-methyl-N-(methylsulfonyl)benzamide]	6.81
Cc1cc(Cl)cc(Cl)c1Oc1ncc(-c2cc(F)c(C(=O)NS(C)(=O)=O)cc2F)cc1C#N [Example 787, 4-(5-cyano-6-(2,4-dichloro-6-methylphenoxy)pyridin-3-yl)-2,5-difluoro-N-(methylsulfonyl)benzamide]	7.10
CS(=O)(=O)NC(=O)c1cc(OC(F)F)c(-c2cnc(Oc3cc(Cl)cc(Cl)c3)c(Cl)c2)cc1F [Example 784, 4-(5-chloro-6-(3,5-dichlorophenoxy)-3-pyridinyl)-5-(difluoromethoxy)-2-fluoro-N-(methylsulfonyl)benzamide]	7.85
Cc1cc(C(=O)NS(C)(=O)=O)c(F)cc1-c1ccc(OC(F)(F)C(F)F)cc1 [Example 811, 5-fluoro-2-methyl-N-(methylsulfonyl)-4′-(1,1,2,2-tetrafluoroethoxy)-4-biphenylcarboxamide]	5.80
